Series [1] can be described thus: physchem. Particulars: octan-1-ol/water.
A short description of series [2]: physchem. Particulars: pH 7.4 buffer.

The values below come from ChEMBL document CHEMBL3301361, “Experimental in vitro DMPK and physicochemical data on a set of publicly disclosed compounds”.

Usually logD stands for lipophilicity at a set pH, counting ionised and neutral species. A lower logD goes with lower lipophilicity. A word on the thermodynamic solubility: it is solubility found after equilibrating the solid with the medium.

In brackets after ≈: the same amount, converted by molar mass.

As to `CC(C)Cn1c(=O)n(C)c(=O)c2c(C(=O)N3CC[C@@H](O)C3)c(Cc3ccccc3C(F)(F)F)sc21`, the logD in the series “physchem [1]” (pH 7.4, LogD7.4) turned out to be 2.74. This molecule had a solubility (thermodynamic) in the series “physchem [2]” of 550 µM (≈ 280 µg/mL).

In the case of `O=C(NCc1ccncc1)c1ccc(Oc2ccc(C#C[C@@]3(O)CN4CCC3CC4)cc2)cc1`, the logD in the series “physchem [1]” (pH 7.4) worked out at 2.31. In addition, the solubility (thermodynamic) in the series “physchem [2]” stood at 107 µM (≈ 48.6 µg/mL).

`CSc1nc(N)nc(-c2ccccc2)n1` showed a logD in the series “physchem [1]” (pH 7.4, LogD7.4) of 2.98. The molecule also had a solubility (thermodynamic) in “physchem [2]” of 24 µM (≈ 5.24 µg/mL).

With `COc1ccc(Cn2cc3c(=O)n(C)c(=O)n(CC(C)C)c3c2)cc1`, the logD in “physchem [1]” (pH 7.4, LogD7.4) is 3.52. For the same molecule, the solubility (thermodynamic) in the series “physchem [2]” is 17 µM (≈ 5.8 µg/mL).

`COc1cc(Nc2nccc(N(C)c3cc(CO)ccc3C)n2)cc(N2CCOCC2)c1` had a pH-dependent lipophilicity (logD) in the series “physchem [1]” (pH 7.4, LogD7.4) of 3.9. Also, in “physchem [2]”, the thermodynamic solubility stood at 56.2 µM (≈ 24.5 µg/mL).

Molecule `CC(=O)N1CCN(c2ccc(NC(=O)c3nnc(Nc4ccccc4F)o3)cc2)CC1` returned a logD in the series “physchem [1]” (pH 7.4, LogD7.4) of 2.51. This molecule also had a solubility (thermodynamic) in “physchem [2]” of 6.2 µM (≈ 2.63 µg/mL).

`c1ccc(Nc2cc(Nc3ccccc3)[nH]n2)cc1` showed a log distribution coefficient (logD) in the series “physchem [1]” (pH 7.4, LogD7.4) of 3.8. Besides, the solubility (thermodynamic) in the series “physchem [2]” worked out at 12.6 µM (≈ 3.15 µg/mL).

As to `COc1cc(N2CCN(C(C)=O)CC2)ccc1Nc1ncc(Cl)c(-c2cnc3cc(CO)ccn23)n1`, the pH-dependent lipophilicity (logD) in “physchem [1]” (pH 7.4, LogD7.4) amounted to 3.1. In “physchem [2]”, this molecule showed a thermodynamic solubility of 22.9 µM (≈ 11.6 µg/mL).

As for `O=C(N[C@@H](Cc1ccccc1)[C@@H](O)C(=O)N1C[C@@H](O)[C@@H](O)C1)c1cc2cc(Cl)ccc2[nH]1` [INGLIFORIB], the logD in “physchem [1]” (pH 7.4, LogD7.4) was 2.8. Also, in “physchem [2]”, the solubility (thermodynamic) was found to be 436 µM (≈ 200 µg/mL).

Molecule `NC(=O)c1sc(-c2ccsc2)cc1NS(=O)(=O)c1ccc(C(F)(F)F)cc1` had a logD in the series “physchem [1]” (pH 7.4, LogD7.4) of 2.39. Further, in “physchem [2]”, the thermodynamic solubility was 4.8 µM (≈ 2.08 µg/mL).

Take `Oc1nc(-c2ccccc2)c(-c2ccccc2)o1`: the log distribution coefficient (logD) in the series “physchem [1]” (pH 7.4, LogD7.4) turned out to be 3.42. In addition, in “physchem [2]”, the solubility (thermodynamic) turned out to be 107 µM (≈ 25.4 µg/mL).

In “physchem [1]” (pH 7.4, LogD7.4), `CNc1cccc(CCOc2ccc(C[C@H](NC(=O)c3c(Cl)cccc3Cl)C(=O)O)cc2)n1` came in with a logD of -0.15. This molecule also gave a solubility (thermodynamic) in the series “physchem [2]” of 1510 µM (≈ 739 µg/mL).

`c1ccc(-c2c[nH]c(-c3ccccc3)n2)cc1` registered a log distribution coefficient (logD) in the series “physchem [1]” (pH 7.4, LogD7.4) of 3.8. In the series “physchem [2]”, this molecule had a solubility (thermodynamic) of 151 µM (≈ 33.3 µg/mL).

With `COc1cc(N2CCN(C(C)=O)CC2)ccc1Nc1ncc(Cl)c(-c2cnc3cc(N4CCCC4)ccn23)n1`, the pH-dependent lipophilicity (logD) in “physchem [1]” (pH 7.4, LogD7.4) is 3.5. The molecule further gave a thermodynamic solubility in “physchem [2]” of 1.4 µM (≈ 0.766 µg/mL).

For `O=CN(O)C1(CS(=O)(=O)N2CCN(c3ccc(F)cc3)CC2)CCC1`, the pH-dependent lipophilicity (logD) in the series “physchem [1]” (pH 7.4, LogD7.4) stood at 1.34. This molecule also came in with a solubility (thermodynamic) in the series “physchem [2]” of 490 µM (≈ 182 µg/mL).

In the case of `O=C(Nc1ccccc1O)c1cc([N+](=O)[O-])ccc1Cl`, the logD in the series “physchem [1]” (pH 7.4, LogD7.4) was 2.49. The same molecule returned a solubility (thermodynamic) in “physchem [2]” of 53.7 µM (≈ 15.7 µg/mL).

In turn, `CCCS(=O)(=O)c1ccc(Nc2nccc(-c3cnc(C)n3C(C)C)n2)cc1` registered a logD in the series “physchem [1]” (pH 7.4, LogD7.4) of 3.37. Moreover, the solubility (thermodynamic) in “physchem [2]” was 138 µM (≈ 55.1 µg/mL).

In “physchem [1]” (pH 7.4, LogD7.4), `Cc1cc(CCC2CCN(S(=O)(=O)CC3(N(O)C=O)CCOCC3)CC2)c(C)cn1` came in with a logD of 1.43. Also, the solubility (thermodynamic) in “physchem [2]” stood at 1100 µM (≈ 482 µg/mL).

Regarding `Nc1nc(-c2ccccn2)nc(N)c1Cc1ccccc1F`, in the series “physchem [1]” (pH 7.4, LogD7.4), the logD was 2.12. Besides, the solubility (thermodynamic) in “physchem [2]” was 170 µM (≈ 50.1 µg/mL).

`CCCSc1nc(N2CCC[C@H](CC(=O)O)C2)ccc1C(=O)NC1CCCCC1` showed a logD in the series “physchem [1]” (pH 7.4, LogD7.4) of 2.18. The molecule also came in with a solubility (thermodynamic) in “physchem [2]” of 174 µM (≈ 72.9 µg/mL).

In the series “physchem [1]” (pH 7.4, LogD7.4), `CNC(=O)Nc1cc(-c2ccccc2)sc1C(N)=O` registered a pH-dependent lipophilicity (logD) of 2.71. The same molecule returned a solubility (thermodynamic) in “physchem [2]” of 1.1 µM (≈ 0.303 µg/mL).

As for `NCC(O)(c1ccc(Cl)cc1)c1ccc(Cl)cc1`, the logD in the series “physchem [1]” (pH 7.4, LogD7.4) turned out to be 2.69. Also, in “physchem [2]”, the thermodynamic solubility came to 759 µM (≈ 214 µg/mL).

In turn, `CN(c1ccnc(Nc2cccc(S(C)(=O)=O)c2)n1)c1cccc2[nH]ncc12` showed a logD in the series “physchem [1]” (pH 7.4, LogD7.4) of 3.21. In addition, the solubility (thermodynamic) in the series “physchem [2]” was found to be 13.5 µM (≈ 5.33 µg/mL).

Regarding `Cc1ncc(-c2ccnc(Nc3ccc(S(=O)(=O)CCCN4CCOCC4)cc3)n2)n1C(C)C`, the log distribution coefficient (logD) in “physchem [1]” (pH 7.4, LogD7.4) worked out at 2.43. For the same molecule, the thermodynamic solubility in the series “physchem [2]” turned out to be 851 µM (≈ 412 µg/mL).

In turn, `CCOC(=O)Cc1csc(NS(=O)(=O)c2ccc(Cl)cc2)n1` returned a log distribution coefficient (logD) in “physchem [1]” (pH 7.4, LogD7.4) of 1.32. In addition, the solubility (thermodynamic) in “physchem [2]” was 417 µM (≈ 150 µg/mL).

In the series “physchem [1]” (pH 7.4, LogD7.4), `CC1C(=O)Nc2ccccc2N1C(=O)c1ccccc1` (stereo unspecified) showed a log distribution coefficient (logD) of 2.11. In the series “physchem [2]”, this molecule displayed a thermodynamic solubility of 40.7 µM (≈ 10.8 µg/mL).

For `Cc1nc(C)c(-c2ccc([C@H]3CC[C@@H](CC(=O)O)CC3)c(Cl)c2)nc1C(N)=O`, the log distribution coefficient (logD) in the series “physchem [1]” (pH 7.4, LogD7.4) was 1.7. The same molecule came in with a solubility (thermodynamic) in “physchem [2]” of 200 µM (≈ 80.2 µg/mL).

As to `C[C@H](NC1=NC(=O)[C@@](C)(C(F)(F)F)S1)c1ccccc1F`, the log distribution coefficient (logD) in the series “physchem [1]” (pH 7.4, LogD7.4) is 3.1. The thermodynamic solubility in “physchem [2]” worked out at 219 µM (≈ 70.1 µg/mL).

Turning to `Cc1ncc(-c2nc(Nc3ccc(C(=O)NC4CCN(C)CC4)c(F)c3)ncc2F)n1C(C)C`, the logD in “physchem [1]” (pH 7.4, LogD7.4) stood at 2.41. In addition, the solubility (thermodynamic) in the series “physchem [2]” was 275 µM (≈ 129 µg/mL).

`Cc1c[nH]c(/C=C2\C(=O)Nc3ccccc32)c1CCC(=O)O` yielded a logD in “physchem [1]” (pH 7.4, LogD7.4) of 1.2. The same molecule had a thermodynamic solubility in the series “physchem [2]” of 447 µM (≈ 132 µg/mL).

Take `C[C@@H]1CN(C(=O)OC(C)(C)C)CCN1c1ncc(OCc2ccc(C#N)cc2)cn1`: the logD in the series “physchem [1]” (pH 7.4, LogD7.4) was determined as 2.89. This molecule gave a solubility (thermodynamic) in “physchem [2]” of 3.4 µM (≈ 1.39 µg/mL).

In the series “physchem [1]” (pH 7.4, LogD7.4), `COc1cc2ncnc(Nc3ccc(F)c(Cl)c3)c2cc1OCCCN1CCCCC1` gave a logD of 3.3. Further, in “physchem [2]”, the thermodynamic solubility was 20 µM (≈ 8.9 µg/mL).

In “physchem [1]” (pH 7.4, LogD7.4), `COc1cc(Nc2cc(Nc3c(Cl)ccc4c3OCO4)ncn2)cc(OC)c1OC` yielded a pH-dependent lipophilicity (logD) of 3.07. Moreover, in “physchem [2]”, the solubility (thermodynamic) came to 2.5 µM (≈ 1.08 µg/mL).
